Assay results as given in patent publication US20060161221A1, “Activation of calcium-mediated cell functions in cells and tissues, including aggregation of human platelets, by nanosecond pulsed electric fields” (priority 2004, published 2006).
“Also recorded” adds a separate entry of the source.

Tests used:
Type in all cases: cell-based, human
[1] = system: HL-60 cells; test: Fura-2 measurement of agonist-induced calcium mobilization with and without BAPTA, media without calcium
From the text: (§1) Cell culture—Non-transformed HL-60 and Jurkat cells were obtained from and cultured as recommended by American Type Culture Collection (ATCC, Rockville, Md.) as previously described (Beebe, S. J., et al. (2002). IEEE Trans. Plasma Sci. 30:1 Part 2, 286-292; Beebe, S. J., et al. (2003). FASEB J. 17, 1493-1495). Cells were removed from log phase growth and suspended in Hanks Balanced Salt Solution (HBSS) in the presence or absence of Ca^2+ and Mg^2+. When calcium was omitted, cells were washed several times in buffer without added calcium. In other experiments, the calcium chelator BAPTA was added to chelate intracellular calcium. Cells were loaded with BAPTA-AM and washed in HBSS before the addition of agonists.
To be certain that BAPTA was able to chelate all intracellular calcium, two agents that mobilize calcium by two different mechanisms were used and the calcium concentration in the cell was directly measured using the fluorescent calcium indicator fura-2. Cells were loaded with Fura2 and BAPTA and tested in media without calcium. The first agonist tested was the purinergic agonist ATP, which leads to the release of intracellular calcium through a phospholipase C— and IP3-mediated mechanism through the IP3 receptor in the endoplasmic reticulum (Berridge, M. J. et al. (1998) Nature 395, 645-648). This is followed by an influx of calcium through store-operated calcium channels in the plasma membrane. […] The second agonist tested was cyclopiazonic acid (CPA), which causes increases in calcium by inhibiting the calcium-ATPase in the endoplasmic reticulum. This pump replenishes the intracellular calcium stores after actions by calcium-mobilizing agents. […] Thus, BAPTA inhibited rapid and transient as well as slow and sustained calcium mobilization by agents that acted on a plasma membrane receptor and an endoplasmic reticulum calcium pump.

[2] = system: Jurkat cells; test: Caspase activation (z-VAD-FITC, flow cytometry) in nsPEF-exposed, BAPTA-loaded Jurkat cells; conditions: energy density ~1.7 J/cc
Procedure: FIG. 2 describes the effect of intracellular calcium chelation by BAPTA on caspase activation in human Jurkat cells. Jurkat cells were incubated with BAPTA-AM ([…]) in Hanks Balanced salt solution (HBSS) with calcium for 30 minutes and washed in HBSS with calcium. The BAPTA loaded cells were exposed to nsPEF as indicated. The electric fields were adjusted to provide a similar energy density (˜1.7 J/cc) under all conditions. After exposure to nsPEF, the cells were incubated with a cell permeable, irreversible inhibitor of active caspases, z-VAD-FITC for 20 minutes before analysis by flow cytometry (Beebe et al., (2003) FASEB J 17, 1493-1495). The values for caspase activity are expressed as the geometric mean z-VAD-FITC fluorescence determined in 15,000 individual cells. […]
(§2) Determination of caspase activation in vivo—Caspase activity was determined in vivo using a fluorescent-labeled, irreversible caspase inhibitor, VAD-fmk-FITC (Val-Ala-Asp-fluoromethylketone labeled with fluoroisothiocyanate) that is specific for the active site of the enzyme (see Beebe et al., 2003). Briefly, cells were exposed to nsPEF, incubated in the presence of the fluorescent caspase inhibitor for 20 minutes, washed to remove background fluorescence and subjected to flow cytometry. Values are expressed as the geometric mean FITC fluorescence. […]

[3] = system: HL-60 cells; test: Caspase activation (z-VAD-FITC, flow cytometry) in nsPEF-exposed, BAPTA-loaded HL-60 cells; conditions: pulses at 10, 60 and 300 ns, equalized energy density
Procedure: Experiments with HL-60 cells in the presence and absence of BAPTA cells were carried out as described for Jurkat cells in FIG. 2 (n=4).
as §1, with “Cells were loaded with BAPTA-AM and washed in HBSS before the addition of agonists.” left out
as §2

[4] = system: HL-60 cells; test: Fluorometric analysis (fura-2) of intracellular free calcium [Ca2+]i in HL-60 cells; conditions: for change in [Ca2+]i: 0.1 μM
Procedure: Cell culture-Non-transformed HL-60 cells were used for this study and were obtained from American Type Culture Collection (ATCC, Rockville, Md.). […] 2 mM CaCl2 was added to this buffer when loading cells with fluorescent indicators unless otherwise stated. In some experiments extracellular calcium was omitted by washing the cells several times in the same physiological buffer without added calcium. […] Post pulse, the cell suspension was removed from the pulsing cuvette and assayed. Fluorometric Analysis of Internal Calcium Response-To analyze the response of a greater number of cells, the fluorescent indicator fura-2 (Molecular Probes, Eugene, Oreg.) was used with a fluorometer. HL-60 cells were incubated with fura-2/AM (2 μM) in the physiological buffer described above containing 2 mM calcium for 45 minutes at 37° C. The cells were then washed and resuspended in calcium-free or calcium-containing buffer at a concentration of 7.7×10^6 cells/ml. […] Pulser® cuvettes could not be used to perform calcium measurements in the fluorometer because of the aluminum plates, which act to block either the excitation light or the emission light depending on the placement of the cuvette in the fluorometer. Therefore, the cells were first placed in the fluorometer cuvette, to obtain a baseline reading, cells were then removed from the fluorometer cuvette with a Pasteur pipette and added to the Pulser® cuvette.

[5] = cells loaded with Fura2 and BAPTA

**Q.** `Nc1ncnc2c1ncn2[C@@H]1O[C@H](COP(=O)(O)OP(=O)(O)OP(=O)(O)O)[C@@H](O)[C@H]1O` [ATP] was tested. Which “calcium mobilization (fura-2)” value ([1]; absence of BAPTA) did it give?
**A.** rapid and transient increase

**Q.** For `O=C(O)CN(CC(=O)O)c1ccccc1OCCOc1ccccc1N(CC(=O)O)CC(=O)O` [BAPTA], which “effect on nsPEF-induced caspase activation” value ([2]; pulses at 10 and 60 ns) is on record?
**A.** no significant effect

**Q.** What about the “reduction of nsPEF-induced caspase activity” value ([2]; pulses with 300 ns durations) of the same compound?
**A.** about 25%

**Q.** What about the “effect on ATP-induced calcium mobilization” value [1, 5] of the same compound?
**A.** completely inhibited

**Q.** And the “effect on CPA-mediated calcium mobilization” value [1, 5]?
**A.** completely inhibited

**Q.** And the “effect on nsPEF-induced caspase activity” value [3]?
**A.** did not significantly affect

**Q.** What does the source list for `O=c1ccn([C@@H]2O[C@H](COP(=O)(O)OP(=O)(O)OP(=O)(O)O)[C@@H](O)[C@H]2O)c(=O)[nH]1` [UTP]?
**A.** [Ca2+]i on addition of 1.0 mM calcium to treated cells (capacitative calcium entry) ([4]; 10 μM UTP in low calcium-containing buffer, then 1.0 mM calcium added): rapid rise; reduction of peak [Ca2+]i effect when added after one 60 ns 15 kV/cm pulse ([4]; 10 μM, extracellular calcium deficient, vs UTP added before a pulse): approximately 60%; increase in [Ca2+]i ([4]; 10 μM, extracellular calcium present): approximately 300 nM; effect on [Ca2+]i compared with 10 μM ([4]; 100 μM, extracellular calcium present): did not produce any larger effect; effect on [Ca2+]i as % of that seen with 10 μM UTP ([4]; 0.1 M (so in the source), extracellular calcium present): approximately 20%; increase in [Ca2+]i ([4]; absence of extracellular calcium, transient): approximately 50 nM; [Ca2+]i increase by one 15 kV/cm pulse after the agonist, as % of pulse before agonist addition ([4]; extracellular calcium deficient): approximately 25%; reduction of [Ca2+]i increase by one 15 kV/cm pulse given after the agonist ([4]; extracellular calcium present): approximately 65%; reduction of [Ca2+]i effect when added after one 15 kV/cm pulse ([4]; extracellular calcium present, vs UTP by itself): approximately 60%

**Q.** Which “effect on nsPEF-induced increases in [Ca2+]i” value ([4]; HL-60 cells) does the source give for `COc1ccc([C@@H]2Sc3ccccc3N(CCN(C)C)C(=O)[C@@H]2OC(C)=O)cc1` [diltiazem] here?
**A.** no effect

**Q.** How did the “[Ca2+]i response when added after one 15 kV/cm pulse” value ([4]; 0.1 μM at approximately 50 seconds, 1 mM extracellular calcium) turn out when `C/C=C(/C)C(=O)O[C@H]1C(C)=C2[C@H]([C@@H]1OC(=O)CCCCCCC)[C@@](C)(OC(C)=O)C[C@H](OC(=O)CCC)[C@@]1(O)[C@H]2OC(=O)[C@@]1(C)O` [thapsigargin] was run?
**A.** did not increase

**Q.** What about the “change in [Ca2+]i” value ([4]; extracellular calcium absent) of the same compound?
**A.** smaller and more transient increase

**Q.** And the “change in [Ca2+]i” value ([4]; extracellular calcium present)?
**A.** prolonged increase; also recorded: gradual and sustained increase

**Q.** And the “reduction of [Ca2+]i increase by one 15 kV/cm pulse given after the agonist” value ([4]; extracellular calcium present)?
**A.** approximately 85%
